Experimental data taken from patent publication US20240383886A1, “Protein Tyrosine Phosphatase Degraders and Methods of Use Thereof” (CALICO LIFE SCIENCES LLC, priority 2019, published 2024).

How the values were obtained:
PTPN2 [1] = molecular target: T1, PTPN2 (Homo sapiens, UniProt P17706); test: HiBiT-Degradation 293T.109 PTPN2 (Nano-Glo HiBiT Lytic Assay); type: cell-based; conditions: 293T.109 (HiBiT-PTPN2) cells, 24.0 hours
T1 construct: expressed in transfected cells; host or cells: 293T (293T.109 HiBiT-PTPN2 line; parental 293T WT from ATCC)
T1 sequence (P17706 1-415): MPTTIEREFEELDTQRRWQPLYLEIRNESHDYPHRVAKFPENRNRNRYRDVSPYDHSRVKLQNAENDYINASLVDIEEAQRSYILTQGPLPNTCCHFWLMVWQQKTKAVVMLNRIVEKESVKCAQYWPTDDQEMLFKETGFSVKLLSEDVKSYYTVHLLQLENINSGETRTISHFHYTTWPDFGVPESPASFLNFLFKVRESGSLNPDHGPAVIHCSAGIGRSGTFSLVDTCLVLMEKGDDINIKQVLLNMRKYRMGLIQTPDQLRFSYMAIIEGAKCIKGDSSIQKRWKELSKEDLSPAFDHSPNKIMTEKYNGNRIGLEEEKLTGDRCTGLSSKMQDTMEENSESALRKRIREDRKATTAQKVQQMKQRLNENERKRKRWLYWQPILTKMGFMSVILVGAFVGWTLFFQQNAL
Source text: Dulbecco's modified Eagle medium (DMEM) without phenol red and fetal bovine serum (FBS) were purchased from Gibco (Grand Island, NY, USA). Nano-Glo® HiBIT Lytic Assay System was purchased from Promega (Madison, WI, USA). 293T.109 (HiBiT-PTPN2) cell line was generated by ectopically expressing PTPN2 with N-terminal HiBiT fusion tag in 293T WT cell line purchased from ATCC (Manassas, VA, USA). Cell culture flasks and 384-well microplates were acquired from VWR (Radnor, PA, USA).
PTPN2 degradation was determined based on quantification of luminescent signal using Nano-Glo® HiBIT Lytic Assay kit. Test compounds were added to the 384-well plate from a top concentration of 10 μM with 11 points, half log titration in duplicates. 293T.109 cells were added into 384-well plates at a cell density of 5000 cells per well. The plates were kept at 37° C. with 5% CO2 for 24 hours. The cells treated in the absence of the test compound were the negative control and the cells without Nano-Glo® HiBiT Lytic reagent were the positive control. After 24-hour incubation, Nano-Glo® HiBIT Lytic Assay reagents were added to the cells. Luminescence was acquired on EnVision™ Multilabel Reader (PerkinElmer, Santa Clara, CA, USA).

PTPN2 [2] = test: HiBiT-Degradation B16F10.4 PTPN2; type: cell-based; conditions: B16F10.4 cells, 24.0 hours

Row | SMILES | DC50 (PTPN2 [1]) [µM] | DC50 (PTPN2 [2]) [µM]
1 | Cn1nc(C2CCC(=O)NC2=O)c2ccc(C3CCN(CC(=O)Nc4ccc5c(F)c(N6CC(=O)NS6(=O)=O)c(O)cc5c4)CC3)cc21 (stereo not drawn) [Example 28, 2-[4-[3-(2,6-dioxo-3-piperidyl)-1-methyl-indazol-6-yl]-1-piperidyl]-N-[5-fluoro-7-hydroxy-6-(1,1,4-trioxo-1,2,5-thiadiazolidin-2-yl)-2-naphthyl]acetamide] | < 0.01 | 0.05 to 0.2
2 | Cn1c(=O)n(C2CCC(=O)NC2=O)c2ccc(C3CCN(CCNC(=O)c4ccc5c(F)c(N6CC(=O)NS6(=O)=O)c(O)cc5c4)CC3)cc21 (stereo not drawn) [Example 29, N-[2-[4-[1-(2,6-dioxo-3-piperidyl)-3-methyl-2-oxo-benzimidazol-5-yl]-1-piperidyl]ethyl]-5-fluoro-7-hydroxy-6-(1,1,4-trioxo-1,2,5-thiadiazolidin-2-yl)naphthalene-2-carboxamide] | < 0.01 | 0.05 to 0.2
3 | Cn1c(=O)n(C2CCC(=O)NC2=O)c2ccc(C3CCN(C(=O)CCC(=O)NCCOc4ccc5cc(O)c(N6CC(=O)NS6(=O)=O)c(F)c5c4)CC3)cc21 (stereo not drawn) [Example 30] | ≥ 1 | ≥ 1
4 | Cn1c(=O)n(C2CCC(=O)NC2=O)c2ccc(C3CCN(C(=O)NCCOc4ccc5cc(O)c(N6CC(=O)NS6(=O)=O)c(F)c5c4)CC3)cc21 (stereo not drawn) [Example 31] | 0.2 to 1 | ≥ 1
5 | O=C1CCC(N2Cc3c(OCC(=O)N4CCC(C(=O)N5CC(Oc6ccc7cc(O)c(N8CC(=O)NS8(=O)=O)c(F)c7c6)C5)CC4)cccc3C2=O)C(=O)N1 (stereo not drawn) [Example 32] | 0.2 to 1 | 0.2 to 1
6 | Cn1c(=O)n(C2CCC(=O)NC2=O)c2cccc(C3CCN(CC(=O)NCCOc4ccc5cc(O)c(N6CC(=O)NS6(=O)=O)c(F)c5c4)CC3)c21 (stereo not drawn) [Example 33] | 0.2 to 1 | ≥ 1
7 | Cn1c(=O)n(C2CCC(=O)NC2=O)c2ccc(CCC(=O)NCCOc3ccc4cc(O)c(N5CC(=O)NS5(=O)=O)c(F)c4c3)cc21 (stereo not drawn) [Example 34] | ≥ 1 | ≥ 1
8 | O=C1CCC(N2Cc3cc(NCC(=O)N4CCC(C(=O)NCCOc5ccc6cc(O)c(N7CC(=O)NS7(=O)=O)c(F)c6c5)CC4)ccc3C2=O)C(=O)N1 (stereo not drawn) [Example 35] | 0.2 to 1 | 0.2 to 1
9 | O=C1CCC(N2Cc3c(NCC(=O)N4CC(C(=O)NCCOc5ccc6cc(O)c(N7CC(=O)NS7(=O)=O)c(F)c6c5)C4)cccc3C2=O)C(=O)N1 (stereo not drawn) [Example 36] | 0.2 to 1 | 0.2 to 1
10 | CC(C)(Nc1cccc2c1C(=O)N(C1CCC(=O)NC1=O)C2=O)c1cn(CCOCCC(=O)NCCOc2ccc3cc(O)c(N4CC(=O)NS4(=O)=O)c(F)c3c2)nn1 (stereo not drawn) [Example 37] | ≥ 1 | ≥ 1
11 | O=C(CCOCCn1cc(C2(Nc3cccc4c3C(=O)N(C3CCC(=O)NC3=O)C4=O)CC2)nn1)NCCOc1ccc2cc(O)c(N3CC(=O)NS3(=O)=O)c(F)c2c1 (stereo not drawn) [Example 38] | ≥ 1 | ≥ 1
12 | Cn1c(=O)n(C2CCC(=O)NC2=O)c2cccc(C3CCN(CCOCCC(=O)NCCOc4ccc5cc(O)c(N6CC(=O)NS6(=O)=O)c(F)c5c4)CC3)c21 (stereo not drawn) [Example 39] | ≥ 1 | ≥ 1
13 | O=C(CN1CCC(n2cc(CNc3cccc4c3C(=O)N(C3CCC(=O)NC3=O)C4=O)nn2)CC1)NCCOc1ccc2cc(O)c(N3CC(=O)NS3(=O)=O)c(F)c2c1 (stereo not drawn) [Example 40] | 0.2 to 1 | ≥ 1
14 | O=C(CCC1CCN(C(=O)CNc2cccc3c2C(=O)N(C2CCC(=O)NC2=O)C3=O)CC1)NCCOc1ccc2cc(O)c(N3CC(=O)NS3(=O)=O)c(F)c2c1 (stereo not drawn) [Example 41] | 0.2 to 1 | ≥ 1
15 | O=C(CN1CC(n2cc(CNc3cccc4c3C(=O)N(C3CCC(=O)NC3=O)C4=O)nn2)C1)NCCOc1ccc2cc(O)c(N3CC(=O)NS3(=O)=O)c(F)c2c1 (stereo not drawn) [Example 42] | 0.2 to 1 | ≥ 1
16 | O=C(CCOCCC(=O)N1CCN(c2ccc(NC3CCC(=O)NC3=O)cc2)CC1)NCCOc1ccc2cc(O)c(N3CC(=O)NS3(=O)=O)c(F)c2c1 (stereo not drawn) [Example 43] | ≥ 1 | ≥ 1
17 | O=C(CCOCCOCCn1cc(CNc2cccc3c2C(=O)N(C2CCC(=O)NC2=O)C3=O)nn1)NCCOc1ccc2cc(O)c(N3CC(=O)NS3(=O)=O)c(F)c2c1 (stereo not drawn) [Example 44] | ≥ 1 | ≥ 1

Row | SMILES | DC50 (PTPN2 [1]) [µM] | DC50 (PTPN2 [2]) [µM]
18 | O=C(CCOCCNC(=O)CNc1cccc2c1CN(C1CCC(=O)NC1=O)C2=O)NCCOc1ccc2cc(O)c(N3CC(=O)NS3(=O)=O)c(F)c2c1 (stereo not drawn) [Example 45] | 0.2 to 1 | ≥ 1
19 | O=C(CCOCCOCCNC(=O)CNc1cccc2c1CN(C1CCC(=O)NC1=O)C2=O)NCCOc1ccc2cc(O)c(N3CC(=O)NS3(=O)=O)c(F)c2c1 (stereo not drawn) [Example 46] | ≥ 1 | ≥ 1
20 | O=C(CCCCCn1cc(CNc2cccc3c2C(=O)N(C2CCC(=O)NC2=O)C3=O)nn1)NCCOc1ccc2cc(O)c(N3CC(=O)NS3(=O)=O)c(F)c2c1 (stereo not drawn) [Example 47] | ≥ 1 | ≥ 1
21 | O=C(CCOCCn1cc(CNc2cccc3c2C(=O)N(C2CCC(=O)NC2=O)C3=O)nn1)NCCOc1ccc2cc(O)c(N3CC(=O)NS3(=O)=O)c(F)c2c1 (stereo not drawn) [Example 48] | ≥ 1 | ≥ 1
22 | Cn1c(=O)n(C2CCC(=O)NC2=O)c2ccc(C3CCN(CCNc4ccc5c(F)c(N6CC(=O)NS6(=O)=O)c(O)cc5c4)CC3)cc21 (stereo not drawn) [Example 52] | ≥ 1 | ≥ 1
23 | Cn1c(=O)n(C2CCC(=O)NC2=O)c2ccc(NC3CCN(CCNc4ccc5c(F)c(N6CC(=O)NS6(=O)=O)c(O)cc5c4)CC3)cc21 (stereo not drawn) [Example 53] | 0.2 to 1 | ≥ 1
24 | Cn1c(=O)n(C2CCC(=O)NC2=O)c2ccc(C3CCN(C(=O)CNc4ccc5c(F)c(N6CC(=O)NS6(=O)=O)c(O)cc5c4)CC3)cc21 (stereo not drawn) [Example 54] | 0.2 to 1 | ≥ 1
25 | O=C1CCC(Nc2ccc(C3CCN(CC(=O)Nc4ccc5c(F)c(N6CC(=O)NS6(=O)=O)c(O)cc5c4)CC3)c(F)c2)C(=O)N1 (stereo not drawn) [Example 55] | 0.2 to 1 | ≥ 1
26 | Cn1c(=O)n(C2CCC(=O)NC2=O)c2ccc(N3CCC4(CC3)CN(C(=O)c3ccc5c(F)c(N6CC(=O)NS6(=O)=O)c(O)cc5c3)C4)cc21 (stereo not drawn) [Example 56] | ≥ 1 | 0.2 to 1
27 | O=C1CCC(N2Cc3c(NCc4cn(C5CN(C(=O)Nc6ccc7c(F)c(N8CC(=O)NS8(=O)=O)c(O)cc7c6)C5)nn4)cccc3C2=O)C(=O)N1 (stereo not drawn) [Example 57] | 0.2 to 1 | ≥ 1
28 | O=C1CCC(N2C(=O)c3cccc(NCc4cn(C5CN(CC(=O)Nc6ccc7c(F)c(N8CC(=O)NS8(=O)=O)c(O)cc7c6)C5)nn4)c3C2=O)C(=O)N1 (stereo not drawn) [Example 58] | 0.2 to 1 | ≥ 1
29 | O=C1CCC(N2C(=O)c3ccc(OCc4cn(CCC(=O)Nc5ccc6c(F)c(N7CC(=O)NS7(=O)=O)c(O)cc6c5)nn4)cc3C2=O)C(=O)N1 (stereo not drawn) [Example 60] | 0.2 to 1 | 0.2 to 1
30 | O=C1CCC(N2C(=O)c3cccc(NCc4cccc(C(=O)Nc5ccc6c(F)c(N7CC(=O)NS7(=O)=O)c(O)cc6c5)c4)c3C2=O)C(=O)N1 (stereo not drawn) [Example 61] | 0.2 to 1 | ≥ 1
31 | O=C1CCC(N2Cc3c(NCc4cn(CCC(=O)Nc5ccc6c(F)c(N7CC(=O)NS7(=O)=O)c(O)cc6c5)nn4)cccc3C2=O)C(=O)N1 (stereo not drawn) [Example 62] | 0.2 to 1 | ≥ 1
32 | O=C1CCC(N2C(=O)c3cccc(NCc4cn(CCOCCOCCC(=O)Nc5ccc6c(F)c(N7CC(=O)NS7(=O)=O)c(O)cc6c5)nn4)c3C2=O)C(=O)N1 (stereo not drawn) [Example 63] | 0.2 to 1 | ≥ 1
33 | O=C1CCC(N2C(=O)c3ccc(NCc4cnn(C5CN(C(=O)Nc6ccc7c(F)c(N8CC(=O)NS8(=O)=O)c(O)cc7c6)C5)c4)cc3C2=O)C(=O)N1 (stereo not drawn) [Example 64] | 0.2 to 1 | ≥ 1
